{"source": "patent US20090118264A1", "about": "“Medicament having neovascularization promoting action” (Research Foundation Itsuu Laboratory, priority 2005, published 2009)", "key": {"[1]": {"tested_on": "human umbilical vein endothelial cells and human skin fibroblasts", "assay": "Neovascularization in co-culture system of human umbilical vein endothelial cells and human skin fibroblasts (Neovascularization Kit), anti-CD31 immunostaining", "type": "cell-based", "protocol": "The effect of LE135 on neovascularization was investigated by using a co-culture system of human umbilical vein endothelial cells and human skin fibroblasts (Neovascularization Kit, Kurabo Industries Ltd.). The vascular endothelial growth factor (VEGF) having a potent neovascularization action, added to 8 wells at a final concentration of 10 ng/ml, was used as positive control. Culture medium alone added to 8 wells without addition of the medicament was used as negative control. LE135 was added to the wells (8 wells for each group) at various concentrations, and culture was performed for 11 days. Immunostaining was performed by using anti-CD31 (PECAM1) antibodies directed to the vascular endothelial cells to determine the areas of luminal structures similar to blood vessels showing positive results and the numbers of branchings as an index of maturity of the formed luminal structures. The luminal structure areas and the numbers of branchings observed in the wells added with the medicament (LE135 or VEGF as the positive control) at various concentrations are shown in Table 1 in terms of relative values based on the luminal structure area and the number of branchings observed in the medicament-free wells as the negative control, which were taken as 100, respectively.\nThe effects of RAR antagonists other than LE135 on neovascularization were examined by using a co-culture system of human umbilical vein endothelial cells and human skin fibroblasts (Neovascularization Kit, Kurabo Industries Ltd.). The vascular endothelial growth factor (VEGF) having a potent neovascularization action added to wells at a final concentration of […] was used as positive control. Culture medium alone added to wells without addition of the medicament was used as negative control. Each compound was added at a concentration of 10^−9 mol/L, and culture was performed for 11 days. Immunostaining was performed by using anti-CD31 (PECAM1) antibodies directed to vascular endothelial cells to determine the areas of luminal structures similar to blood vessels showing positive results and the numbers of branchings as an index of maturity of the formed luminal structures. The luminal structure areas and the numbers of branchings observed in the wells added with the medicament at each given concentration are shown in the following table in terms of relative values based on the luminal structure area and the number of branchings observed in the medicament-free wells as the negative control, which were taken as 100, respectively."}, "[2]": {"tested_on": "mouse lower extremity ischemia model", "assay": "Neovascularization experiment using mouse lower extremity ischemia model", "type": "in vivo, mice (C3H/HeNCrj)", "protocol": "The femoral arteries on one side of 24 to 36-week old wild-type male mice (C3H/HeNCrj) were ligated and separated to prepare lower extremity ischemia model mice. […] The blood flow ratio between the affected extremities and the normal extremities was determined by the laser Doppler method on the day before the operation and 1, 3, 4, 5, 7, 9, 12, 14, 16, 18, 21, 24 and 28 days after the operation. […] In order to detect vascular endothelial cells in muscle tissues of the affected extremities on 21st day after the operation, immunostaining was performed by using anti-CD31 (PECAM1) antibodies."}, "[3]": {"tested_on": "rabbit lower extremity ischemia model", "assay": "Intramuscular administration to rabbit lower extremity ischemia model, angiography", "type": "in vivo, rabbits", "details": "10^−8 M LE135 solution injected into femoral muscles, 3 times per week; 28th day from the ligature; compared with control group (FIG. 2)", "protocol": "The external iliac arteries on one side of rabbits were ligated and separated, and a 10^−8 M LE135 solution was injected into the femoral muscles on the same side to examine the neovascularization effect of the medicament. A solution of an organic solvent alone in the same amount as used for dissolution of LE135 was used as a negative control. The solutions were administered 3 times per week from the next day of the ligature. […] The blood vessels surrounded by the broken lines are considered to be collateral blood routes. In the figure, the white arrows* indicate the common iliac arteries."}, "[4]": {"details": "Example 4: each compound 10^−9 mol/L, culture 11 days, relative value, negative control taken as 100, mean ± SD (Table 3)"}, "[5]": {"details": "LE135 10^−9 M, culture 11 days, relative value, negative control taken as 100, mean ± SD (Table 1)"}, "[6]": {"details": "LE135 10^−10 M, culture 11 days, relative value, negative control taken as 100, mean ± SD"}, "[7]": {"details": "LE135 10^−11 M, culture 11 days, relative value, negative control taken as 100, mean ± SD"}}, "note": "Like-named read-outs stand apart in the source and are kept apart here.", "data": [{"compound": "CN1c2cc3c(cc2N=C(c2ccc(C(=O)O)cc2)c2ccccc21)C(C)(C)CCC3(C)C", "note": "[LE135, 4-(5H-7,8,9,10-tetrahydro-5,7,7,10,10-pentamethylbenzo[e]naphtho[2,3-b][1,4]diazepin-13-yl)benzoic acid]", "values": [{"measurement": "Area (luminal structure area)", "setting": "[1]; [4]", "result": "158.73 ± 6.89"}, {"measurement": "Number of branchings", "setting": "[1]; [4]", "result": "170.09 ± 14.87"}, {"measurement": "Area (luminal structure area)", "setting": "[1]; [5]", "result": "112.52 ± 4.68"}, {"measurement": "Number of branching", "setting": "[1]; [5]", "result": "150.31 ± 10.26"}, {"measurement": "Area (luminal structure area)", "setting": "[1]; [6]", "result": "116.30 ± 5.69"}, {"measurement": "Number of branching", "setting": "[1]; [6]", "result": "137.40 ± 9.48"}, {"measurement": "Area (luminal structure area)", "setting": "[1]; [7]", "result": "109.09 ± 4.89"}, {"measurement": "Number of branching", "setting": "[1]; [7]", "result": "118.70 ± 9.27"}, {"measurement": "Promotion of neovascularization", "setting": "[1]; concentrations of 10^−10 and 10^−9 M, versus negative control", "result": "significantly promoted neovascularization"}, {"measurement": "CD31-positive cell count per field (200×)", "setting": "[2]; mice orally administered with 5 mg/kg of LE135, muscle tissues of affected extremities, 21st day after the operation", "result": "21.63 ± 4.12 per field (200×)"}, {"measurement": "Numbers of endothelial cells (CD31-positive cells), in words", "setting": "[2]; muscle tissues of affected extremities, 21st day after the operation, compared with no medicament-administered group", "result": "significantly higher numbers of endothelial cells"}, {"measurement": "Necrosis or amputation in the lower extremities", "setting": "[2]; orally 5 mg/kg of LE135, 28th day after the operation, about 30% in no medicament-administered mice", "result": "no mouse among the LE135-administered mice was observed to have necrosis or amputation"}, {"measurement": "Blood flow ratio between affected and normal extremities (laser Doppler method)", "setting": "[2]; orally 5 mg/kg of LE135, up to 28 days after the operation, compared with no medicament-administered mice (FIG. 1)", "result": "Significant improvement of the blood flow"}, {"measurement": "Formation of collateral blood routes (angiography)", "setting": "[3]", "result": "evidently better formation of collateral blood routes"}]}, {"compound": "VEGF", "values": [{"measurement": "Number of branching", "setting": "[1]", "result": "154.20 ± 7.12"}, {"measurement": "Number of branchings", "setting": "[1]", "result": "321.50 ± 42.17"}, {"measurement": "Area (luminal structure area)", "setting": "[1]; Example 4: VEGF final concentration 10 μg/ml, culture 11 days, relative value, negative control taken as 100 (Table 3)", "result": "202.52 ± 18.40"}, {"measurement": "Area (luminal structure area)", "setting": "[1]; VEGF final concentration 10 ng/ml, culture 11 days, relative value, negative control taken as 100 (Table 1)", "result": "134.88 ± 4.42"}]}, {"compound": "CN1c2cc3c(cc2N=C(c2ccc(C(=O)O)cc2)c2ccc4ccccc4c21)C(C)(C)CCC3(C)C", "note": "[LE540]", "values": [{"measurement": "Blood vessel luminal structure area (in words)", "setting": "[1]; Example 4: 10^−9 mol/L, versus negative control", "result": "significantly increased the blood vessel luminal structure area"}, {"measurement": "Area (luminal structure area)", "setting": "[1]; [4]", "result": "172.02 ± 22.00"}, {"measurement": "Number of branchings", "setting": "[1]; [4]", "result": "195.33 ± 24.49"}]}]}
